# Source: patent publication US12525646B2, “Ionic cyclic nitroxyl radical oligomers” (Wisconsin Alumni Research Foundation, priority 2021, dated 2026)
# Legend:
# Assay type in all cases: physicochemical
# [1] = Permeability through AMVN anion-exchange membrane; conditions: low ionic-conductivity AMVN membrane
# Source text: Crossover of the TEMPO species is critical to RFB lifetime as it lowers the catholyte capacity through material loss and the anolyte capacity through chemical/electrochemical side reactions.
# [2] = Electrochemical impedance spectroscopy (PEIS), Z-fitting to ideal Randle equivalent circuit; conditions: PEIS Z-fit
# [3] = Viscosity of solutions versus volumetric capacity; conditions: compared with TMAP-TEMPO; reduced (uncharged) state
# Source text: When determining the maximum cycling concentration with the water-miscible i-TEMPODs, the active molecule solubility no longer limits volumetric capacity as the interaction between the dissolved species and the water molecules are very thermodynamically favorable, and each TEMPO dimer is able to dissolve with a minimal amount of coordinated water. Instead, the cycling concentration will be limited by the electrolyte viscosity and its relation to pumping energy cost. The viscosity of representative TEMPO monomer and dimer solutions was experimentally measured at various volumetric capacities in their reduced (uncharged) states. FIG. 35A compares the viscosity of the i-TEMPODs to previously known TEMPO monomers, which are designated “OH”, “Nine”, and “TMAP”. Descriptions of these monomers can be found in: T. Liu, X. Wei, Z. Nie, V. Sprenkle, W. Wang, A Total Organic Aqueous Redox Flow Battery Employing a Low Cost and Sustainable Methyl Viologen Anolyte and 4-HO-TEMPO Catholyte. Adv. Energy Mater. 6 (2016); T. Janoschka, N. Martin, M. D. Hager, U. S. Schubert, An Aqueous Redox-Flow Battery with High Capacity and Power. The TEMPTMA/MV System. Angew. Chemie—Int. Ed. 55, 14427-14430 (2016); and Y. Liu, M. A. Goulet, L. Tong, Y. Liu, Y. Ji, L. Wu, R. G. Gordon, M. J. Aziz, Z. Yang, T. Xu, A Long-Lifetime All-Organic Aqueous Flow Battery Utilizing TMAP-TEMPO Radical. Chem. 5, 1861-1870 (2019). […]
compound,measurement,setting,value
CC1(C)CC([N+](C)(C)C2CC(C)(C)N([O])C(C)(C)C2)CC(C)(C)N1[O] [i-TEMPOD-1],crossover with the AMVN membrane,[1],no detectible crossover
same,C1,[2],264.7 uF
same,Rct,[2],17.43 Ohm
same,Ru,[2],27.54 Ohm
same,viscosity at a given volumetric capacity,[3],nearly equal viscosity
